The source of these data is paper PMC7802075 (ACS Infectious Diseases, 2020).

A word on the inhibition: it is the change of the read-out against control, counted positive when it falls.

Where a SMILES comes first, the peptide text is derived from it. The star is where a group is joined. For = O=C*

In one experiment the target is T1, LmjIPCS (inositol phosphorylceramide synthase from L. major) (Leishmania major, UniProt E9AFX2).
T1 sequence (E9AFX2 1-338): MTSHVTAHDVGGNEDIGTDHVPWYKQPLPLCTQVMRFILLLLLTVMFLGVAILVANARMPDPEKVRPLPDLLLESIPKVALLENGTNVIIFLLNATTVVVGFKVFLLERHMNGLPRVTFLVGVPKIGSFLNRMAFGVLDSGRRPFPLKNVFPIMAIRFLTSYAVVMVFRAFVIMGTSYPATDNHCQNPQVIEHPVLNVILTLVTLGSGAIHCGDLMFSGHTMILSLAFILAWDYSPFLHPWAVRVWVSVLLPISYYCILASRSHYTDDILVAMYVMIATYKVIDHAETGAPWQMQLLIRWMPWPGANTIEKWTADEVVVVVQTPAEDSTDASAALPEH
Description: biochemical. Type of experiment: biochemical. Further details: inhibition: dose or concentration left out as unconfirmed.
Settings: not given
As for `CON` [METHOXYAMINE], the “20mM inhibition LmjIPCS” value was 12%.
Same read-out and setting: then `CC[C@@H](CO)NC(=O)[C@@H]1C=C2c3cccc4[nH]cc(c34)C[C@H]2N(C)C1` [METHYLERGONOVINE], with 35%.
Regarding `Cc1ccccc1N1C(=O)c2cc(S(N)(=O)=O)c(Cl)cc2NC1C` (centres unmarked) [METOLAZONE], the “20mM inhibition LmjIPCS” value was 50%.
Take `COc1ccc2[nH]cc(CCN)c2c1` [MEXAMINE]: the “20mM inhibition LmjIPCS” value is on record as 25%.
On to `Cc1ccsc1/C=C/C1=NCCCN1C` [MORANTEL], for which the “20mM inhibition LmjIPCS” value is on record as 60%.
Still for that read-out and setting: then `N=C(NCCC[C@H](N)C(=O)O)N[N+](=O)[O-]` [N (g)-NITRO-L-ARGININE], with 1.68%; and `CCN(CC)CCOC(=O)C(Cc1cccc2ccccc12)CC1CCCO1` (centres unmarked) [NAFRONYL], with 46%; and `CN1CCOC(c2ccccc2)c2ccccc2C1` (centres unmarked) [NEFOPAM], with 68%.
`O=C(O)C(O)C(O)C(=O)O.OCc1cccnc1` (centres unmarked) [NICOTINYL]: the “20mM inhibition LmjIPCS” value was 6%.
Take `COCCOC(=O)C1=C(C)NC(C)=C(C(=O)OC(C)C)C1c1cccc([N+](=O)[O-])c1` (centres unmarked) [NIMODIPINE]: the “20mM inhibition LmjIPCS” value was determined as 36%.
In the case of `CCOC(=O)C1=C(C)NC(C)=C(C(=O)OC)C1c1cccc([N+](=O)[O-])c1` (centres unmarked) [NITRENDIPINE], the “20mM inhibition LmjIPCS” value came to 39%.
Turning to `NC(=O)c1cc([N+](=O)[O-])cc([N+](=O)[O-])c1` [NITROMIDE], the “20mM inhibition LmjIPCS” value came out at 9%.
As for `O=C1OC(=O)[C@H]2[C@@H]1[C@@H]1CC[C@H]2O1` [NORCANTHARIDIN], the “20mM inhibition LmjIPCS” value was 1.76%.

Staying with this experiment, now noted: NINDS set screen, compound at 20mM (so in the source).
`Cc1cc(C(C)(C)CC(C)(C)C)ccc1OCCOCC[N+](C)(C)Cc1ccccc1.[Cl-]` [METHYLBENZETHONIUM CHLORIDE]: the “20mM inhibition LmjIPCS” value was determined as 12%.
As for `COc1ccc2cc([C@H](C)C(=O)O)ccc2c1` [NAPROXEN(+)], the “20mM inhibition LmjIPCS” value amounted to 18%.
For the compound `COc1ccc(CCC(=O)c2c(O)cc(O[C@@H]3O[C@H](CO)[C@@H](O)[C@H](O)[C@H]3O[C@@H]3O[C@@H](C)[C@H](O)[C@@H](O)[C@H]3O)cc2O)cc1O` [NEOHESPERIDIN DIHYDROCHALCONE], the “20mM inhibition LmjIPCS” value stood at 15%.

The same experiment, now with this note: NINDS set screen, single concentration printed as 20mM.
In the case of `O=C1c2c(O)ccc(O)c2C(=O)c2c(NCCNCCO)ccc(NCCNCCO)c21` [MITOXANTHRONE], the “20mM inhibition LmjIPCS” value came to 63%.
On the same count and under the same terms, in the case of `N=C(N)NC(=O)c1nc(Cl)c(N2CCCCCC2)nc1N` [N,N-HEXAMETHYLENEAMILORIDE] it was 65%.

Staying with this experiment, now noted: NINDS set screen; read-out: inhibition LmjIPCS.
Consider `C[C@H]1C[C@@H]2[C@H]([C@@H](O)C[C@@]3(C)[C@H]2CC[C@]3(O)C(=O)CO)[C@@]2(C)C=CC(=O)C=C12` [METHYLPREDNISOLONE], for which the inhibition turned out to be 16%.
`Cc1cc(-c2ccccc2)nnc1NCCN1CCOCC1` [MINAPRINE]: the inhibition was determined as 25%.
Consider `CC(=O)N1CCCC1C(=O)O` (centres unmarked) [N-ACETYLPROLINE], for which the inhibition is -1.28%.
Still for that read-out and setting: then `O=C(NCO)c1cccnc1` [N-HYDROXYMETHYLNICOTINAMIDE], with 12%; and `COc1ccc2cc(CCC(C)=O)ccc2c1` [NABUMETONE], with 12%.

The experiment is the same for the next values; noted with them: read-out: 20mM inhibition LmjIPCS.
For the compound `COc1ccc(OC)c(C(O)C(C)N)c1` (centres unmarked) [METHOXAMINE], the inhibition at 20000 µM amounted to 24%.
Take `C[N+]1(C)[C@@H]2C[C@@H](OC(=O)[C@H](CO)c3ccccc3)C[C@H]1[C@@H]1O[C@@H]12` [METHSCOPOLAMINE BROMIDE]: the inhibition at 20000 µM came out at 10%.
As for `COCCc1ccc(OCC(O)CNC(C)C)cc1` (centres unmarked) [METOPROLOL], the inhibition at 20000 µM turned out to be 21%.
With `COc1ccc(OC)c(C(O)CNC(=O)CN)c1` (centres unmarked) [MIDODRINE], the inhibition at 20000 µM amounted to 13%.
On the same count and under the same terms, then `OCCN1C[C@H](O)[C@@H](O)[C@H](O)[C@H]1CO` [MIGLITOL], with -0.821%; and `NC(Cn1ccc(=O)c(O)c1)C(=O)O` (centres unmarked) [MIMOSINE], with 3%.
Still for that read-out and setting: in the case of `NC(=O)c1ncn([C@@H]2O[C@H](CO)[C@@H](O)[C@H]2O)c1O` [MIZORIBINE] it was 6.58%.
`NC(=O)C[S+]([O-])C(c1ccccc1)c1ccccc1` (centres unmarked) [MODAFINIL]: the inhibition at 20000 µM worked out at 13%.
`CCOC(=O)[N-]c1cn(N2CCOCC2)n[o+]1` [MOLSIDOMINE]: the inhibition at 20000 µM is -0.951%.
Turning to `CC[C@@]1([C@@H]2O[C@@H]([C@H]3O[C@@](O)(CO)[C@H](C)C[C@@H]3C)C[C@@H]2C)CC[C@H]([C@]2(C)CC[C@]3(C[C@H](O)[C@@H](C)[C@@H]([C@@H](C)[C@@H](OC)[C@H](C)C(=O)O)O3)O2)O1` [MONENSIN], the inhibition at 20000 µM amounted to 0.265%.
Take `C[C@H]1C(=O)O[C@@H]2CCN3CC=C(COC(=O)[C@](C)(O)[C@]1(C)O)[C@H]23` [MONOCROTALINE]: the inhibition at 20000 µM worked out at 2%.
Consider `O=c1c(O)c(-c2ccc(O)cc2O)oc2cc(O)cc(O)c12` [MORIN], for which the inhibition at 20000 µM amounted to 4%.
With `CO[C@@]1(NC(=O)C(C(=O)O)c2ccc(O)cc2)C(=O)N2C(C(=O)O)=C(CSc3nnnn3C)CO[C@@H]21` (some centres unmarked) [MOXALACTAM], the inhibition at 20000 µM worked out at 10%.
Take `COc1c(N2C[C@@H]3CCCN[C@@H]3C2)c(F)cc2c(=O)c(C(=O)O)cn(C3CC3)c12` [MOXIFLOXACIN]: the inhibition at 20000 µM stood at 16%.
For the compound `CC(=O)N[C@@H](CC(=O)O)C(=O)O` [N-ACET[…]], the inhibition at 20000 µM is -3%.
Regarding `CCOc1ccc2ccccc2c1C(=O)N[C@@H]1C(=O)N2[C@@H]1SC(C)(C)[C@@H]2C(=O)O` [NAFCILLIN], the inhibition at 20000 µM was determined as 4.73%.
The same measure, in the same setting: in the case of `CCn1cc(C(=O)O)c(=O)c2ccc(C)nc21` [NALIDIXIC ACID] it was -11%; in that of `c1ccc2c(CC3=NCCN3)cccc2c1` [NAPHAZOLINE], 28%.
Regarding `CC[C@@H](C(=O)O)[C@@H]1O[C@@H]([C@@H](C)[C@H](O)[C@H](C)C(=O)[C@H](CC)[C@H]2O[C@]3(C=C[C@@H](O)[C@]4(CC[C@@](C)([C@H]5CC[C@](O)(CC)[C@H](C)O5)O4)O3)[C@H](C)C[C@@H]2C)[C@@H](C)C[C@@H]1C` [NARASIN], the inhibition at 20000 µM was -0.161%.
Regarding `C[C@@H]1O[C@@H](O[C@H]2[C@H](Oc3cc(O)c4c(c3)O[C@H](c3ccc(O)cc3)CC4=O)O[C@H](CO)[C@@H](O)[C@@H]2O)[C@H](O)[C@H](O)[C@H]1O` [NARINGIN], the inhibition at 20000 µM came out at 4.67%.
As for `CN(C)C(=O)Oc1cccc([N+](C)(C)C)c1` [NEOSTIGMINE BROMIDE], the inhibition at 20000 µM turned out to be 20%.
In the case of `O=C(O)c1cccnc1` [NIACIN], the inhibition at 20000 µM is 15%.
`CN1CCC[C@H]1c1cccnc1` [NICOTINE]: the inhibition at 20000 µM is 10%.
Turning to `CO[C@@H]1C[C@@H](C[C@H]2CC[C@H](C)[C@H]([C@@H](C)C(=O)O)O2)O[C@]2(O[C@](C)([C@H]3CC[C@@](C)([C@@H]4O[C@@H]([C@H]5O[C@@](O)(CO)[C@H](C)C[C@@H]5C)C[C@@H]4C)O3)C[C@H]2C)[C@@H]1C` [NIGERICIN], the inhibition at 20000 µM was -7.41%.
`CC1(C)NC(=O)N(c2ccc([N+](=O)[O-])c(C(F)(F)F)c2)C1=O` [NILUTAMIDE]: the inhibition at 20000 µM amounted to 4%.
Consider `CS(=O)(=O)Nc1ccc([N+](=O)[O-])cc1Oc1ccccc1` [NIMESULIDE], for which the inhibition at 20000 µM stood at 11%.
Still for that read-out and setting: in the case of `Cc1ncc(CNC(=O)N(CCCl)N=O)c(N)n1` [NIMUSTINE] it was 20%; in that of `NC(=O)N/N=C/c1ccc([N+](=O)[O-])o1` [NITROFURAZONE], 14%.

The same experiment, now with this note: read-out: inhibition LmjIPCS.
`CN(Cc1cnc2nc(N)nc(N)c2n1)c1ccc(C(=O)N[C@@H](CCC(=O)O)C(=O)O)cc1` [METHOTREXATE]: the inhibition is 8%.
Consider `CCN(CC)CCNC(=O)c1cc(Cl)c(N)cc1OC` [METOCLOPRAMIDE], for which the inhibition came to 6%.
On to `Cc1ncc([N+](=O)[O-])n1CCO` [METRONIDAZOLE], for which the inhibition was 7%.
Regarding `Nc1cc(N2CCCCC2)nc(N)[n+]1[O-]` [MINOXIDIL], the inhibition was determined as 15%.
Take `COc1c(C)c2c(c(O)c1C/C=C(\C)CCC(=O)O)C(=O)OC2` [MYCOPHENOLIC ACID]: the inhibition amounted to 4%.
Take `O=C1CC[C@@]2(O)[C@H]3Cc4ccc(O)c5c4[C@@]2(CCN3CC2CC2)[C@H]1O5` [NALTREXONE]: the inhibition was determined as 8%.
As to `O=C1C[C@@H](c2ccc(O)cc2)Oc2cc(O)cc(O)c21` [NARINGENIN], the inhibition was 17%.
On to `CC(C)=CCC/C(C)=C\CO` [NEROL], for which the inhibition came out at 33%.
Regarding `COC(=O)C1=C(C)NC(C)=C(C(=O)OCCN(C)Cc2ccccc2)C1c1cccc([N+](=O)[O-])c1` (centres unmarked) [NICARDIPINE], the inhibition is -15%.
As to `Cc1c(NC(=O)c2cccnc2)c(=O)n(-c2ccccc2)n1C` [NIFENAZONE], the inhibition turned out to be 11%.
In the case of `CN1Cc2c(N)cccc2C(c2ccccc2)C1` (centres unmarked) [NOMIFENSINE], the inhibition turned out to be 5%.

The experiment is the same for the next values; noted with them: screening of NINDS set, sheet Screen 1; read-out: inhibition LmjIPCS.
In the case of `C[C@](N)(Cc1ccc(O)c(O)c1)C(=O)O` [METHYLDOPA], the inhibition came to 8%.
Turning to `Cc1cc(=O)[nH]c(=S)[nH]1` [METHYLTHIOURACIL], the inhibition was determined as 7%.
With `CC(C)(C)NCC(O)COc1cccc2c1CC(O)C(O)C2` (centres unmarked) [NADOLOL], the inhibition turned out to be 9%.
Same read-out and setting: in the case of `COc1ccc2cc([C@H](C)CO)ccc2c1` [NAPROXOL] it was 4.4%; in that of `CC(C)[C@H]1CC[C@H](C(=O)N[C@H](Cc2ccccc2)C(=O)O)CC1` [NATEGLINIDE], 7%.

Still in this experiment, the particulars now being: single concentration 20mM as printed; screening of NINDS set, sheet Screen 1.
In the case of `CSCC[C@H](NC=O)C(=O)N[C@@H](Cc1ccccc1)C(=O)O` [N-FORMYLMETHIONYLPHENYLALANINE] (For-Met-Phe-OH), the “20mM inhibition LmjIPCS” value is given as 5.35%.
